Assay type in all cases: functional, cell-based
In experiment [1] the test system is PC-3. Kind of experiment: Cytotoxicity against human PC3M cells by MTT assay. In general terms: Formazan colour is commonly taken as a measure of viable cells.
For experiment [2], the system named is NCI-H460. Kind of experiment: Cytotoxicity against human H460 cells by MTT assay.
Experiment [3] has as its system Bel-7402. Kind of experiment: Cytotoxicity against human BEL-7402 cells by MTT assay.
Experiment [4] has as its system A-431. Nature of the experiment: Cytotoxicity against human A431 cells by MTT assay.
In experiment [5] the test system is BGC-823. Nature of the experiment: Cytotoxicity against human BGC823 cells by MTT assay.
For experiment [6], the system named is KETR3. Kind of experiment: Cytotoxicity against human KETR3 cells by MTT assay.
The subject of experiment [7] is PANC-1. Kind of experiment: Cytotoxicity against human PANC1 cells by MTT assay.
Experiment [8] relates to HCT-8. Kind of experiment: Cytotoxicity against human HCT8 cells by MTT assay.

The text below walks through data of ChEMBL document CHEMBL1146980, “Synthesis and antitumor activity of icogenin and its analogue” (Bioorg Med Chem Lett, 2006).

The term pIC50 denotes the IC50 on a negative log10 scale, so that one unit is a factor of ten. High values mean a small IC50, low ones a large IC50.

pIC50: −log10 of the molar value.

`CO[C@]1(CC[C@H](C)CO)O[C@H]2C[C@H]3[C@@H]4CC=C5C[C@@H](O[C@@H]6O[C@H](CO)[C@@H](O)[C@H](O[C@@H]7O[C@H](CO)[C@@H](O)[C@H](O)[C@H]7O)[C@H]6O[C@@H]6O[C@@H](C)[C@H](O)[C@@H](O)[C@H]6O)CC[C@]5(C)[C@H]4CC[C@]3(C)[C@H]2[C@@H]1C` [ICOGENIN]: the pIC50 in experiment [1] is 5.36; in experiment [2], less than 5.00; in experiment [3], 6.12; in experiment [4] it was 5.46; in experiment [5], less than 5.00; in experiment [6], 5.29. For the same compound, the values for the negative logarithm of the IC50 (pIC50) in experiment [7] and in experiment [8] were 6.57 and 5.84, respectively.

Regarding `CO[C@]1(CC[C@H](C)CO)O[C@H]2C[C@H]3[C@@H]4CC=C5C[C@@H](O[C@H]6O[C@H](CO)[C@@H](O)[C@H](O[C@@H]7O[C@H](CO)[C@@H](O)[C@H](O)[C@H]7O)[C@H]6O[C@@H]6O[C@@H](C)[C@H](O)[C@@H](O)[C@H]6O)CC[C@]5(C)[C@H]4CC[C@]3(C)[C@H]2[C@@H]1C`, the pIC50 in experiment [1] is 5.56; in experiment [2], 5.09; in experiment [3] it was 6.02; in experiment [4], 6.17; in experiment [5], 5.60; in experiment [6], 5.42. The negative-log IC50 (pIC50) in experiment [7] was 6.42; in experiment [8], 5.85.
